Values of other authors, collected in patent publication US20210212962A1, “METHODS AND COMPOSITIONS FOR THE TREATMENT OF GRANULOMA ANNULARE OR SUBCUTANEOUS INFLAMMATION AND NON-INFECTION GRANULOMATOUS DISEASES” (Sol-Gel Technologies Ltd., priority 2020, published 2021).

Conditions: known for tapinarof treatments

For `CC(C)c1c(O)cc(/C=C/c2ccccc2)cc1O` [tapinarof, 3,5-dihydroxy-4-isopropyl-trans-stilbene], the “folliculitis as a side effect in tapinarof treatments” value is given as 10%.
